± gives the expanded uncertainty stated by the source.
Assays:
[1] = refractive index (Na D-line) (dimensionless); details: 298.15 K; 101.33 kPa; Liquid; Standard Abbe refractometry
[2] = 101.33 kPa, Liquid; for viscosity: Capillary tube (Ostwald / Ubbelohde) method
[3] = 298.15 K, Linear variable-path acoustic interferometer
[4] = 308.15 K, Linear variable-path acoustic interferometer
[5] = 318.15 K, Linear variable-path acoustic interferometer
[6] = 328.15 K, Linear variable-path acoustic interferometer
[7] = 338.15 K, Linear variable-path acoustic interferometer

SMILES | refractive index [1] | mass density ([2]; 298.15 K) | viscosity ([2]; 298.15 K) | speed of sound [2, 3] | mass density ([2]; 308.15 K) | viscosity ([2]; 308.15 K) | speed of sound [2, 4] | mass density ([2]; 318.15 K) | viscosity ([2]; 318.15 K) | speed of sound [2, 5] | mass density ([2]; 328.15 K) | viscosity ([2]; 328.15 K) | speed of sound [2, 6] | mass density ([2]; 338.15 K) | viscosity ([2]; 338.15 K) | speed of sound [2, 7] | speed of sound ([2]; 298.15 K) | speed of sound ([2]; 308.15 K) | speed of sound ([2]; 318.15 K) | speed of sound ([2]; 328.15 K) | other results
CCC(O)CO (stereo not given) [1,2-butanediol] | 1.4374 ± 0.0004 | 998.86 ± 0.36 kg/m3 | 57.46 ± 0.2 mPa·s | 1452 ± 2.2 m/s | 991.42 ± 0.37 kg/m3 | 30.18 ± 0.15 mPa·s | 1423.8 ± 2.2 m/s | 983.93 ± 0.39 kg/m3 | 17.41 ± 0.1 mPa·s | 1396.2 ± 2.2 m/s | 976.09 ± 0.41 kg/m3 | 10.9 ± 0.083 mPa·s | 1387 ± 2.1 m/s | 968.11 ± 0.43 kg/m3 | 7.257 ± 0.073 mPa·s | 1366 ± 2.1 m/s |  |  |  |  | 
CC(O)CO (stereo not given) [1,2-propanediol] | 1.4314 ± 0.0004 | 1032.77 ± 0.44 kg/m3 | 43.43 ± 0.21 mPa·s | 1500.1 ± 2.2 m/s | 1025.4 ± 0.42 kg/m3 | 24.25 ± 0.13 mPa·s | 1488.9 ± 2.2 m/s | 1017.32 ± 0.4 kg/m3 |  | 1438.1 ± 2.2 m/s | 1009.56 ± 0.38 kg/m3 | 9.691 ± 0.079 mPa·s | 1401 ± 2.2 m/s | 1001.81 ± 0.36 kg/m3 | 7.044 ± 0.073 mPa·s | 1382.8 ± 2.1 m/s |  |  |  |  | 
CC(O)CCO (stereo not given) [1,3-butanediol] | 1.439 ± 0.0004 | 1000.03 ± 0.35 kg/m3 | 97.25 ± 1.1 mPa·s |  | 994.22 ± 0.37 kg/m3 | 52.5 ± 0.15 mPa·s |  | 988.7 ± 0.38 kg/m3 | 30.49 ± 0.15 mPa·s |  | 979.18 ± 0.4 kg/m3 | 18.91 ± 0.11 mPa·s |  | 971.91 ± 0.42 kg/m3 | 12.28 ± 0.087 mPa·s |  | 1522.1 ± 6.3 m/s | 1492.1 ± 6.2 m/s | 1472 ± 6.1 m/s | 1453.9 ± 6.1 m/s | speed of sound ([2]; 338.15 K): 1436.1 ± 6 m/s
OCCCCO [1,4-butanediol] | 1.4442 ± 0.0004 | 1012.57 ± 0.45 kg/m3 | 72.62 ± 0.5 mPa·s |  | 1006.4 ± 0.43 kg/m3 | 44.87 ± 0.21 mPa·s |  | 1000.76 ± 0.41 kg/m3 | 29.07 ± 0.15 mPa·s |  |  | 19.48 ± 0.11 mPa·s |  | 987.93 ± 0.45 kg/m3 | 13.49 ± 0.09 mPa·s |  | 1605.1 ± 6.5 m/s | 1588 ± 6.5 m/s | 1570.8 ± 6.4 m/s | 1552.1 ± 6.4 m/s | speed of sound ([2]; 338.15 K): 1529 ± 6.3 m/s
CC(O)C(C)O (stereo not given) [2,3-butanediol] | 1.4366 ± 0.0004 | 998.57 ± 2 kg/m3 | 44.68 ± 0.21 mPa·s |  | 992.11 ± 2 kg/m3 | 22.95 ± 0.12 mPa·s |  | 984.13 ± 2 kg/m3 | 12.8 ± 0.088 mPa·s |  | 970.58 ± 2 kg/m3 | 7.722 ± 0.074 mPa·s |  | 961.97 ± 2 kg/m3 | 5.195 ± 0.069 mPa·s |  | 1470.2 ± 7.9 m/s | 1440 ± 7.8 m/s | 1412.2 ± 7.7 m/s | 1392 ± 7.6 m/s | speed of sound ([2]; 338.15 K): 1373.9 ± 7.5 m/s
OCCCO [propan-1,3-diol] | 1.4386 ± 0.0004 | 1049.99 ± 0.49 kg/m3 | 40.07 ± 0.19 mPa·s | 1636.1 ± 2.3 m/s | 1043.71 ± 0.47 kg/m3 | 27.25 ± 0.14 mPa·s | 1616 ± 2.3 m/s | 1037.37 ± 0.45 kg/m3 | 17.01 ± 0.1 mPa·s | 1599.2 ± 2.2 m/s | 1030.96 ± 0.43 kg/m3 | 11.28 ± 0.084 mPa·s | 1575.9 ± 2.2 m/s | 1024.47 ± 0.42 kg/m3 | 7.939 ± 0.075 mPa·s | 1557 ± 2.2 m/s |  |  |  |  | 
O [water] | 1.3323 ± 0.0004 |  | 0.89 ± 0.063 mPa·s | 1498 ± 2.1 m/s |  | 0.719 ± 0.063 mPa·s | 1519 ± 2.2 m/s |  | 0.596 ± 0.063 mPa·s | 1535.1 ± 2.2 m/s |  | 0.503 ± 0.063 mPa·s | 1545 ± 2.2 m/s |  | 0.438 ± 0.063 mPa·s | 1551 ± 2.2 m/s |  |  |  |  | 
